{"source": "patent US20090311344A1", "about": "“Dosing Regimen” (priority 2008, published 2009)", "key": {"platelet count": {"test_system": "platelet count", "test": "platelet count in the rat after a single i.v. dose", "format": "in vivo", "settings": "single i.v. dose 30 to 300 μg/kg", "protocol": "(§1) The TPO mimetic peptide compound has an estimated EC50 of approximately 5 pM (0.2 ng/mL) in a human TPO (huTPO) receptor assay in vitro and stimulates megakaryocyte lineage specific growth and differentiation in vivo."}, "[1]": {"test_system": "chemotherapy-induced thrombocytopenia and anemia", "test": "murine models of chemotherapy-induced thrombocytopenia (CIT) and anemia", "format": "in vivo", "protocol": "as §1"}, "[2]": {"test_system": "platelets, reticulocytes, hematocrit", "test": "CBC analysis and reticulocyte counts in HT-29 tumor-bearing mice (Groups 6-9)", "format": "in vivo, athymic nude mice", "protocol": "Five groups (n=10) of female athymic nude mice (Harlan) bearing established (˜100 mm^3) HT-29 human colon carcinomas on Day 1. Groups 6-9 (n=20) were included for blood sampling and received the same treatment as Groups 1-4, respectively. Treatment effects on the growth of tumors were evaluated by tumor growth delay (TGD), which is the difference between median time to endpoint (TTE) tumor size in a treatment group compared to a control group. […]\nGroup 1 mice (n=10) were untreated tumor growth controls. Group 2 mice (n=10) received 60 mg/kg carboplatin administered intraperitoneally (i.p.) on Days 1, 2, 12, and 13. Group 3 mice (n=10) received 0.2 mg/kg of the TPO mimetic peptide compound administered intravenously (i.v.) via tail vein on Days 2 and 13. Groups 4 and 5 received the combination of carboplatin (60 mg/kg i.p. on Days 1, 2, 12, and 13) and 0.2 mg/kg of the TPO mimetic peptide compound on Days 2, 13 and Days 2, 13, 23, respectively, administered intravenously (i.v.) one hour after carboplatin dosing. Groups 6-9 (n=20 each) were included for blood sampling and received the same treatments as Groups 1-4, respectively. For all groups, each dose of drug was given in a volume of 0.2 mL per 20 g of body weight (10 mL/kg), and was scaled to the body weight of each animal.\n[…] Blood was collected into EDTA tubes, and complete blood counts (CBC) with differential were determined using a Cell-Dyn® 3700 System (Abbott Diagnostics) for automated hematology analyses. Reticulocyte values were determined. In addition, for Groups 1-5, five animals per group were euthanized at or just after endpoint by terminal cardiac puncture under CO2 anesthesia, and gross necropsies were performed. Blood samples were collected into EDTA tubes, and CBC with differential and reticulocyte values were performed as previously described. All other animals in Groups 1-5 were euthanized at endpoint without sampling."}, "hemoglobin": {"test_system": "hemoglobin", "test": "Multiple dose study in cancer subjects receiving platinum-based chemotherapy: hemoglobin", "format": "in vivo, human"}}}
{"substance": "Methoxypolyethyleneglycol20000-propionyl-L-Isoleucyl-L-Glutamyl-Glycyl-L-Prolyl-L-Threonyl-L-Leucyl-L-Arginyl-L-Glutaminyl-L-2-Naphthylalanyl-L-Leucyl-L-Alanyl-L-Alanyl-L-Arginyl-Sarcosyl-Ne-(methoxypolyethyleneglycol20000-propionyl-L-Isoleucyl-L-Glutamyl-Glycyl-L-Prolyl-L-Threonyl-L-Leucyl-L-Arginyl-L-Glutaminyl-L-2-Naphthylalanyl-L-Leucyl-L-Alanyl-L-Alanyl-L-Arginyl-Sarcosyl-)-Lysinamide [TPO mimetic peptide compound]", "values": [{"measurement": "platelet count", "setting": "platelet count", "result": "increased platelet count"}, {"measurement": "time at which platelet count returned to baseline", "setting": "platelet count", "result": 12, "unit": "days"}, {"measurement": "time at which the platelet count increase was maximal", "setting": "platelet count", "result": 6, "unit": "days"}, {"measurement": "effect of administration time relative to chemotherapy", "setting": "[1]; 1 hour after chemotherapy compared with dosing after 24 or 96 hours", "result": "more effective"}, {"measurement": "doses at which the anti-anemic effect was observed", "setting": "[1]; following carboplatin treatment", "result": "≥ 0.03", "unit": "mg/kg"}, {"measurement": "chemotherapy-induced reduction in Hb, hematocrit and RBC count", "setting": "[1]; mouse, in vivo", "result": "prevented"}, {"measurement": "fibrinogen-positive microangiopathic lesions in small blood vessels in the brain", "setting": "[1]; mouse, in vivo", "result": "marked reduction"}, {"measurement": "minimum effective dose", "setting": "[1]; murine models of CIT, single dose, Day 12", "result": 0.1, "unit": "mg/kg"}, {"measurement": "myeloprotective effect in murine models of CIT", "setting": "[1]; single dose, Day 12", "result": "reducing the severity and duration of CIT in a dose-dependent manner"}, {"measurement": "mean reticulocyte values compared to Group 6 controls", "setting": "[2]; Group 8, all time points", "result": "slightly higher"}, {"measurement": "mean hematocrit (HCT) values compared to untreated mice (Group 6)", "setting": "[2]; Groups 7-9", "result": "similar"}, {"measurement": "mean platelet counts compared to untreated Group 6 controls", "setting": "[2]; Groups 7-9, regimens as Groups 2-4, Days 10, 13, 21, and 23", "result": "higher mean platelet counts at all four time points"}, {"measurement": "hemoglobin as compared with placebo", "setting": "hemoglobin; 2.25 and 3 μg/kg doses", "result": "trends for preservation of hemoglobin"}, {"measurement": "Change From Baseline in Hemoglobin, Diff of LS Mean (SE) vs Placebo", "setting": "hemoglobin; Day 42, 1.5 μg/kg", "result": "0.54 (0.63)"}, {"measurement": "Change From Baseline in Hemoglobin, Diff of LS Mean (SE) vs Placebo", "setting": "hemoglobin; Day 42, 3.0 μg/kg", "result": "1.00 (0.61)"}, {"measurement": "Change From Baseline in Hemoglobin, LS Mean (SE)", "setting": "hemoglobin; Day 42, 3.0 μg/kg", "result": "−1.16 (0.47)"}, {"measurement": "Change From Baseline in Hemoglobin, Diff of LS Mean (SE) vs Placebo", "setting": "hemoglobin; Day 63, 1.5 μg/kg", "result": "−0.75 (0.90)"}, {"measurement": "Change From Baseline in Hemoglobin, LS Mean (SE)", "setting": "hemoglobin; Day 63, 1.5 μg/kg", "result": "−2.98 (0.70)"}, {"measurement": "Change From Baseline in Hemoglobin, Diff of LS Mean (SE) vs Placebo", "setting": "hemoglobin; Day 63, 2.25 μg/kg", "result": "0.68 (0.83)"}, {"measurement": "Change From Baseline in Hemoglobin, LS Mean (SE)", "setting": "hemoglobin; Day 63, 2.25 μg/kg", "result": "−1.55 (0.61)"}, {"measurement": "Change From Baseline in Hemoglobin, Diff of LS Mean (SE) vs Placebo", "setting": "hemoglobin; Day 63, 3.0 μg/kg", "result": "0.79 (0.83)"}, {"measurement": "Change From Baseline in Hemoglobin, LS Mean (SE)", "setting": "hemoglobin; Day 63, 3.0 μg/kg", "result": "−1.44 (0.61)"}, {"measurement": "Change From Baseline in Hemoglobin, Diff of LS Mean (SE) vs Placebo", "setting": "hemoglobin; Day 84, 1.5 μg/kg", "result": "0.05 (0.73)"}, {"measurement": "Change From Baseline in Hemoglobin, LS Mean (SE)", "setting": "hemoglobin; Day 84, 1.5 μg/kg", "result": "−1.88 (0.55)"}, {"measurement": "Change From Baseline in Hemoglobin, Diff of LS Mean (SE) vs Placebo", "setting": "hemoglobin; Day 84, 2.25 μg/kg", "result": "0.37 (0.77)"}, {"measurement": "Change From Baseline in Hemoglobin, LS Mean (SE)", "setting": "hemoglobin; Day 84, 2.25 μg/kg", "result": "−1.56 (0.61)"}, {"measurement": "Change From Baseline in Hemoglobin, Diff of LS Mean (SE) vs Placebo", "setting": "hemoglobin; Day 84, 3.0 μg/kg", "result": "1.57 (0.77)"}, {"measurement": "Change From Baseline in Hemoglobin, LS Mean (SE)", "setting": "hemoglobin; Day 84, 3.0 μg/kg", "result": "−0.36 (0.61)"}, {"measurement": "change in hemoglobin levels from baseline to the end of Cycle 2 (Day 42) and beyond", "setting": "hemoglobin; preliminary evaluation", "result": "dose-related trend for preservation of hemoglobin"}]}
